Consider six molecules from ChEMBL document CHEMBL1649507, “CMY-29 and CMY-30, two novel plasmid-mediated AmpC beta-lactamases” (2009).

In brackets after ≈: the same amount, converted by molar mass.

Format in all cases: functional
The subject of assay [1] is Escherichia coli. Nature of the assay: Antibacterial activity against Escherichia coli isolate ARL04-413 harboring beta-lactamase CMY 2 by broth microdilution method.
Assay [2] has as its system Escherichia coli. Nature of the assay: Antibacterial activity against Escherichia coli isolate ARL05-909 harboring beta-lactamase CMY 29 by broth microdilution method. (Broth dilution looks for growth in wells or tubes with falling amounts of substance.)
Assay [3] has as its system Escherichia coli. Nature of the assay: Antibacterial activity against Escherichia coli isolate ARL05-705 harboring beta-lactamase CMY 7 by broth microdilution method.
Assay [4] concerns Escherichia coli. Nature of the assay: Antibacterial activity against Escherichia coli isolate ARL06-39 harboring beta-lactamase CMY 30 by broth microdilution method.

For orientation: MIC means the least concentration at which growth counts as inhibited. A lower MIC goes with a more susceptible organism. Regarding `CO/N=C(\C(=O)N[C@@H]1C(=O)N2C(C(=O)[O-])=C(C[N+]3(C)CCCC3)CS[C@H]12)c1csc(N)n1` [CEFEPIME], the minimal inhibitory concentration (MIC) against Escherichia coli [1] stood at 0.25 µg/mL (≈ 0.52 µM); in the assay with Escherichia coli [2], 1 µg/mL (≈ 2.08 µM); in the assay with Escherichia coli [3] it was 0.25 µg/mL (≈ 0.52 µM); in the assay with Escherichia coli [4] it was 0.5 µg/mL (≈ 1.04 µM).

Regarding `CO[C@@]1(NC(=O)Cc2cccs2)C(=O)N2C(C(=O)O)=C(COC(N)=O)CS[C@@H]21` [CEFOXITIN], the MIC in the assay with Escherichia coli [1] was ≥ 256 µg/mL; with Escherichia coli [2], ≥ 256 µg/mL; with Escherichia coli [3] it was 64 µg/mL (≈ 150 µM); against Escherichia coli [4], 128 µg/mL (≈ 299 µM).

For `CC(C)(O/N=C(\C(=O)N[C@@H]1C(=O)N2C(C(=O)[O-])=C(C[n+]3ccccc3)CS[C@H]12)c1csc(N)n1)C(=O)O` [CEFTAZIDIME], the minimum inhibitory concentration (MIC) is 64 µg/mL (≈ 117 µM) against Escherichia coli [1], ≥ 128 µg/mL in the assay with Escherichia coli [2], 64 µg/mL (≈ 117 µM) in the assay with Escherichia coli [3] and 32 µg/mL (≈ 58.5 µM) with Escherichia coli [4].

As for `CO/N=C(\C(=O)N[C@@H]1C(=O)N2C(C(=O)O)=C(CSc3nc(=O)c(O)nn3C)CS[C@H]12)c1csc(N)n1` [CEFTRIAXONE], the MIC came to 32 µg/mL (≈ 57.7 µM) with Escherichia coli [1], 128 µg/mL (≈ 231 µM) against Escherichia coli [2], 32 µg/mL (≈ 57.7 µM) against Escherichia coli [3] and 32 µg/mL (≈ 57.7 µM) against Escherichia coli [4].

Take `C[C@@H](O)[C@H]1C(=O)N2C(C(=O)O)=C(SCCNC=N)C[C@H]12` [IMIPENEM ANHYDROUS]: the MIC came to 0.25 µg/mL (≈ 0.835 µM) with Escherichia coli [1], 0.5 µg/mL (≈ 1.67 µM) in the assay on Escherichia coli [2], 0.5 µg/mL (≈ 1.67 µM) with Escherichia coli [3] and 0.5 µg/mL (≈ 1.67 µM) against Escherichia coli [4].

As for `C[C@@H](O)[C@H]1C(=O)N2C(C(=O)O)=C(S[C@@H]3CN[C@H](C(=O)N(C)C)C3)[C@H](C)[C@H]12` [MEROPENEM], the MIC in the assay on Escherichia coli [1], against Escherichia coli [2], in the assay on Escherichia coli [3] and against Escherichia coli [4] was ≤ 0.12 µg/mL throughout.
